Laboratory results published in PMC10413907 (Journal of Evidence-based Integrative Medicine, 2023).
“And” between values parts separate entries of the source, which are not always exact repeats. Identical values can stand only once. Like-named read-outs stand apart in the source and are kept apart here.

Tests used:
[1] = molecular target: recombinant human CYP2D6 (Homo sapiens, UniProt P10635); test: P450-Glo bioluminescent CYP450 inhibition assay
[2] = molecular target: recombinant human CYP2C19 (Homo sapiens, UniProt P33261); test: P450-Glo bioluminescent CYP450 inhibition assay; assay type: in vitro ADME
recombinant human CYP2C19, sequence (P33261 whole entry): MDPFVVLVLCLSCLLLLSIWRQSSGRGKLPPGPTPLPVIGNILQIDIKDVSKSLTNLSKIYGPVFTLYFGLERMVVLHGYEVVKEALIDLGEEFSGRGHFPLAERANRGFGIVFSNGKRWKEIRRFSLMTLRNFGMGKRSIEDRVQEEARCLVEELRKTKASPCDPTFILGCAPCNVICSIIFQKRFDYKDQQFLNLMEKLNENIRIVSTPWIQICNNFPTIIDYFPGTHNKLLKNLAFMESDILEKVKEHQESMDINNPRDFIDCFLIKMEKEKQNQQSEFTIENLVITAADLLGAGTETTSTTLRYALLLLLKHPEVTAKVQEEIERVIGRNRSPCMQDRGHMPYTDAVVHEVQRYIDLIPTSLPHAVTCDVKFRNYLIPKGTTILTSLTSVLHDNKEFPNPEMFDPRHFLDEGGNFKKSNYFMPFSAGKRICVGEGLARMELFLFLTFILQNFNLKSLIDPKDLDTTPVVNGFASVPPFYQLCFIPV

[3] = molecular target: recombinant human CYP2C9 (Homo sapiens, UniProt P11712); test: P450-Glo bioluminescent CYP450 inhibition assay
recombinant human CYP2C9, sequence (P11712 whole entry): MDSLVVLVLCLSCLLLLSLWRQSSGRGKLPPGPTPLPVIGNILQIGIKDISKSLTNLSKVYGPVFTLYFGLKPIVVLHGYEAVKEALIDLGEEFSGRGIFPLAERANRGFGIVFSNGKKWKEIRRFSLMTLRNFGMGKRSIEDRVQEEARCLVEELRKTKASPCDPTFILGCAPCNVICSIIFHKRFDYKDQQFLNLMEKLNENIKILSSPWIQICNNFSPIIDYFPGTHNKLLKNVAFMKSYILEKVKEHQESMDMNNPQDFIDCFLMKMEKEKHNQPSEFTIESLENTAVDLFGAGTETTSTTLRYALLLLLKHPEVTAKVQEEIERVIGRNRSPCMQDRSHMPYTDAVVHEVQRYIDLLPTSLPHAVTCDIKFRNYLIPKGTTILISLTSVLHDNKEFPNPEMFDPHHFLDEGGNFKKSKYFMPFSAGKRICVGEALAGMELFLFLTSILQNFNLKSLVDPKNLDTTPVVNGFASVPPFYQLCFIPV

[4] = molecular target: T1, recombinant human CYP1A2 (Homo sapiens, UniProt P05177); test: P450-Glo bioluminescent CYP450 inhibition assay; assay type: in vitro ADME
T1 sequence (P05177 1-516): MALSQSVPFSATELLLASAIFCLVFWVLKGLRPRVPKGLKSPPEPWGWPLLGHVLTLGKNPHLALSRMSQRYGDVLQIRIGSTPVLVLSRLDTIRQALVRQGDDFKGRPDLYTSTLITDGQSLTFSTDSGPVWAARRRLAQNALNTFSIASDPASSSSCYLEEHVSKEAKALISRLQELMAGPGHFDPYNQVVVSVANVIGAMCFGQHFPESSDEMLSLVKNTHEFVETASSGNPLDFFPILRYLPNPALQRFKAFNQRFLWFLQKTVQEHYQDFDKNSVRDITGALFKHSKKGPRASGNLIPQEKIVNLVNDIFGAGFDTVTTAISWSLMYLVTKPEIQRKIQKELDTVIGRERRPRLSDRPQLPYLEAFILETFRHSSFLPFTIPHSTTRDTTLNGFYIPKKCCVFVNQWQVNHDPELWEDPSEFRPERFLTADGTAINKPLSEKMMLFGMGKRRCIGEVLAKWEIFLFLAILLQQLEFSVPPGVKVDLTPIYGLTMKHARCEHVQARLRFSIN

[5] = molecular target: recombinant human CYP3A4 (Homo sapiens, UniProt P08684); test: P450-Glo bioluminescent CYP450 inhibition assay; assay type: in vitro ADME
recombinant human CYP3A4, sequence (P08684 whole entry): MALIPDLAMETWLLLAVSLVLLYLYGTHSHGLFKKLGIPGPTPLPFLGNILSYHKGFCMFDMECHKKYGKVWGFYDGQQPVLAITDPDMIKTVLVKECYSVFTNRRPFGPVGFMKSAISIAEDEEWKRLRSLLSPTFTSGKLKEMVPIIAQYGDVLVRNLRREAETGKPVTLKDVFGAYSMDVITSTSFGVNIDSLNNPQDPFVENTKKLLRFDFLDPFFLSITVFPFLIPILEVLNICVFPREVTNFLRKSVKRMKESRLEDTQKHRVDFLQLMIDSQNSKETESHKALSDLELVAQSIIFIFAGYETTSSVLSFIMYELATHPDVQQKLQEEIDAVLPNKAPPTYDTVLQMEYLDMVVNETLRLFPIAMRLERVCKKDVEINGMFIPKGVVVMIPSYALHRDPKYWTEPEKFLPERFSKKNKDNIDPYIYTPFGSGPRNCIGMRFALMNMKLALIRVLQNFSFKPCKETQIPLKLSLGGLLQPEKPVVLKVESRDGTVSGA

[6] = test system: IL-6 mRNA; test: Pro-inflammatory cytokine mRNA expression; assay type: cell-based, human; details: PBMCs from psoriasis patients vs healthy subjects; 48 h; IC50
[7] = test system: IL-23A mRNA; test: Pro-inflammatory cytokine mRNA expression; assay type: cell-based, human; details: PBMCs from psoriasis patients vs healthy subjects, 48 h
[8] = test system: PBMCs (from healthy subjects); test: MTT cell proliferation assay, PBMCs; assay type: cell-based, human
[9] = test system: HaCaT cells; test: MTT cell proliferation assay, HaCaT; assay type: cell-based, human; details: 48 h, median (range)
[10] = test system: IL-12p19 mRNA; test: Pro-inflammatory cytokine mRNA expression; assay type: cell-based, human; details: PBMCs from psoriasis patients vs healthy subjects
[11] = test system: PBMCs from psoriasis patients and healthy subjects; test: Cell apoptosis/necrosis, FITC-Annexin V/PI flow cytometry, PBMCs; assay type: cell-based, human; details: 48 h exposure; for proportions of PBMCs with early apoptosis, psoriasis patients compared with healthy volunteers: both concentrations
[12] = test system: TNF-α mRNA; test: Pro-inflammatory cytokine mRNA expression; assay type: cell-based, human; details: PBMCs from psoriasis patients vs healthy subjects; 48 h; IC25
[13] = test system: PBMCs from psoriasis patients and healthy subjects; test: Cell cycle analysis by flow cytometry; assay type: cell-based, human; details: PBMCs from patients with psoriasis; 24 h; both concentrations
[14] = read-out: CYP2D6 IC50, median (range), unit of the reference inhibitor
[15] = read-out: CYP2D6 inhibitory potency class, class by IC50
[16] = read-out: CYP2C19 IC50, median (range), unit of the reference inhibitor
[17] = read-out: CYP2C19 inhibitory potency class, class by IC50
[18] = read-out: CYP2C9 IC50, median (range), unit of the reference inhibitor
[19] = read-out: CYP2C9 inhibitory potency class, class by IC50
[20] = read-out: CYP1A2 IC50, median (range), unit of the reference inhibitor
[21] = read-out: CYP1A2 inhibitory potency class, class by IC50
[22] = read-out: CYP3A4 IC50, median (range), unit of the reference inhibitor
[23] = read-out: CYP3A4 inhibitory potency class, class by IC50

recombinant human CYP2D6, sequence (P10635 whole entry): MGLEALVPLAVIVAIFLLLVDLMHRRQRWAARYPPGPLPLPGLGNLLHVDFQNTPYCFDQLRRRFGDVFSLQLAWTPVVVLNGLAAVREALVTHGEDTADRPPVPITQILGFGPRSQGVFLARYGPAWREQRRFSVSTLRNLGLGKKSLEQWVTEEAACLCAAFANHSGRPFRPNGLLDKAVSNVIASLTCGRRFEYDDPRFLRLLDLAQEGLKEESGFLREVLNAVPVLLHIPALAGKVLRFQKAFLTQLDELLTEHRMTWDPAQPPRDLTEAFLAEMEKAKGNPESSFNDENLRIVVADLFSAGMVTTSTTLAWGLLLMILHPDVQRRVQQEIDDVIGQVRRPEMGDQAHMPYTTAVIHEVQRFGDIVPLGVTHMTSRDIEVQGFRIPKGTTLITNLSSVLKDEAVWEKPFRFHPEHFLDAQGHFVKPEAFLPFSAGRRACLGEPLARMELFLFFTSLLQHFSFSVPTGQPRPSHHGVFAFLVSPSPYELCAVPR

Row | CYP2D6 inhibitory potency class ([1]; class by IC50) | IC50 [1, 14] | IC50 [1, 15] | IC50 [2, 16] | IC50 [2, 17] | IC50 [3, 18] | IC50 [3, 19] | IC50 [4, 20] | IC50 [4, 21] | IC50 [5, 22] | IC50 [5, 23] | Compound | IL-6 mRNA expression [6] | PBMCs IC25 ([8]; 48 h, median (range)) | HaCaT IC25 ([9]; MTT) | proportions of PBMCs with early apoptosis, psoriasis patients compared with healthy volunteers [11] | other results
1 | moderately inhibited | 11.4 µM | 10 to 50 µM | 1450 µM | > 50 µM | 469 µM | > 50 µM | 5250 µM | > 50 µM | 1150 µM | > 50 µM | COc1cc(/C=C/C(=O)O)ccc1O [Ferulic acid, ferulic acid] |  |  |  |  | 
2 | moderately inhibited | 17.8 µM | 10 to 50 µM | 80.4 µM | > 50 µM | 87.5 µM | > 50 µM | 118 µM | > 50 µM | 865 µM | > 50 µM | CCOC(=O)C=Cc1ccc(OC)cc1 [EPMC, ethyl-p-methoxycinnamate] | reduced | 254 (234-258) μM | 432 (395-458) μM | significantly lower | IL-23A mRNA expression ([7]; IC50): reduced; PBMCs IC50 ([8]; 48 h, median (range)): 63.09 µg/mL; IC50 ([8]; read-out: PBMCs IC50, 48 h, median (range)): 306 µM and 305 µM; HaCaT IC50 ([9]; MTT): 114.25 µg/mL; IC50 ([9]; read-out: HaCaT IC50, MTT): 554 µM; IL-12p19 mRNA expression ([10]; 24 h, only at IC50): downregulating
3 |  |  |  |  |  |  |  |  |  |  |  | CCC/C=C1\OC(=O)C2=C1CCC=C2 [Ligustilide, ligustilide] | downregulating | 105 (101-106) μM | 151 (138-155) μM | significantly lower | IC50 ([1]; CYP2D6 IC50, median (range), unit of the reference inhibitor): 218 µM; IC50 ([1]; CYP2D6 inhibitory potency class, class by IC50): > 50 µM; IL-23A mRNA expression ([7]; IC25): downregulated; IC50 ([9]; Homo sapiens, HaCaT, read-out: HaCaT IC50, MTT, 48 h): 188 µM and 35.8 µg/mL; IC50 ([2]; CYP2C19 IC50, median (range), unit of the reference inhibitor): 89.2 µM; IC50 ([2]; CYP2C19 inhibitory potency class, class by IC50): > 50 µM; IL-12p19 mRNA expression ([10]; 48 h, IC25): downregulated; TNF-α mRNA expression [12]: downregulated; proportions of living PBMCs from psoriasis patients compared with PBMCs from healthy volunteers [11]: significantly higher; IC50 ([3]; CYP2C9 IC50, median (range), unit of the reference inhibitor): 114 µM; IC50 ([3]; CYP2C9 inhibitory potency class, class by IC50): > 50 µM; IC50 [4]: 10 to 50 µM; CYP1A2 inhibitory potency class ([4]; class by IC50): moderately inhibited; phase of cell cycle arrest [13]: S phase; IC50 ([5]; CYP3A4 IC50, median (range), unit of the reference inhibitor): 39.8 µM; IC50 ([5]; CYP3A4 inhibitory potency class, class by IC50): 10 to 50 µM; CYP3A4 inhibitory potency class ([5]; class by IC50): moderately inhibited
